According to patent publication US12318452B2, “Degraders of WEE1 kinase” (DANA-FARBER CANCER INSTITUTE, INC., priority 2018, dated 2025):

Columns and labels:
Wee1 = Wee1 (Homo sapiens, UniProt P30291); assay: Wee1 degradation immunoblot in OVCAR8 cells; format: cell-based; design: endogenous in cells; settings: 5 hours
Description: Whole cell lysates for immunoblotting were prepared by pelleting cells from each cell line at 4° C. (300 g) for 5 minutes. The resulting cell pellets were washed 1× with ice-cold PBS and then resuspended in RIPA lysis buffer (Sigma, cat #R0278) supplemented with protease and phosphatase inhibitor tablets (Roche cat #4906845001). Lysates were clarified at 14,000 rpm for 15 minutes at 4° C. prior to quantification by BCA assay (Pierce™, cat #23225). Whole cell lysates were loaded into Bolt 4-12% Bis-Tris Gels (Thermo Fisher, cat #NW04120BOX) and separated by electrophoreses at 95 V for 1.5 hours. The gels were transferred to a nitrocellulose membrane using the iBlot® Gel Transfer at P3 for 7 minutes (Thermo Fisher, cat #IB23001) and then blocked for 1 hour at room temperature in Odyssey® blocking buffer (LICOR® Biosciences, cat #927-50010). Membranes were probed using antibodies against the relevant proteins at 4° C. overnight in 20% Odyssey® Blocking Buffer in 1×TBST. […]
Compound 13 was profiled in three different ovarian cancer cell lines OVCAR8, COV362, and Kuramochi (FIG. 6C-FIG. 6E). […] After confirming that Compound 13 degraded Wee1 in OVCAR8 cells, with maximal degradation observed at a 100 nM treatment (FIG. 11A), the efficacy of compound 13 and Olaparib combination treatments were evaluated.

MCF10A cells = assay: Image-based cell cycle assay in non-transformed mammary epithelial cells; settings: data not shown
Description: (§1) HCC1806, BT549, and Kuramochi cells were maintained in RPMI (Corning®, Corning, NY) supplemented with 10% fetal bovine serum (FBS) (Life Technologies™, Carlsbad, CA) and 1% penicillin/streptomycin (Corning, Corning®, NY). OVCAR8 cells were maintained as above with the addition of 2 mM L-glutamine (Life Technologies™, Carlsbad, CA). MCF10A cells were maintained in a 1:1 mix of DMEM:F12 supplemented with 5% horse serum (Life Technologies™ Carlsbad, CA), 1% penicillin/streptomycin (Corning®, Corning, NY), 20 ng/ml EGF (Peprotech®, Rocky Hill, NJ), 500 ng/ml hydrocortisone (Sigma-Aldrich®, St. Louis, MO), 10 μg/ml insulin (Sigma-Aldrich®, St. Louis, MO), and 100 ng/ml cholera toxin (Sigma-Aldrich®, St. Louis, MO). COV362 cells were maintained in DMEM (Corning®, Corning, NY) supplemented with 10% FBS (Life Technologies™, Carlsbad, CA), 1% penicillin/streptomycin (Corning®, Corning, NY) and 2 mM L-glutamine (Life Technologies™, Carlsbad, CA). The OCE1 cells were maintained in FOMI (Wit-Fo) (PMID: 24303006) supplemented with 25 ng/ml cholera toxin (Sigma-Aldrich®, St. Louis, MO). […]
(§2) Fixed cells were imaged with a 10× objective using an Operetta microscope and analyzed using the Columbus image data storage and analysis system (PerkinElmer®, Waltham, MA). […] The average LDR, EdU and phospho-histone H3 intensities within the nuclear masks were determined. […]

BT549 and HCC1806 cells = assay: Image-based cell cycle assay in TNBC cell lines; settings: data not shown
Description: as §1, §2

Wee1, sequence (P30291 whole entry): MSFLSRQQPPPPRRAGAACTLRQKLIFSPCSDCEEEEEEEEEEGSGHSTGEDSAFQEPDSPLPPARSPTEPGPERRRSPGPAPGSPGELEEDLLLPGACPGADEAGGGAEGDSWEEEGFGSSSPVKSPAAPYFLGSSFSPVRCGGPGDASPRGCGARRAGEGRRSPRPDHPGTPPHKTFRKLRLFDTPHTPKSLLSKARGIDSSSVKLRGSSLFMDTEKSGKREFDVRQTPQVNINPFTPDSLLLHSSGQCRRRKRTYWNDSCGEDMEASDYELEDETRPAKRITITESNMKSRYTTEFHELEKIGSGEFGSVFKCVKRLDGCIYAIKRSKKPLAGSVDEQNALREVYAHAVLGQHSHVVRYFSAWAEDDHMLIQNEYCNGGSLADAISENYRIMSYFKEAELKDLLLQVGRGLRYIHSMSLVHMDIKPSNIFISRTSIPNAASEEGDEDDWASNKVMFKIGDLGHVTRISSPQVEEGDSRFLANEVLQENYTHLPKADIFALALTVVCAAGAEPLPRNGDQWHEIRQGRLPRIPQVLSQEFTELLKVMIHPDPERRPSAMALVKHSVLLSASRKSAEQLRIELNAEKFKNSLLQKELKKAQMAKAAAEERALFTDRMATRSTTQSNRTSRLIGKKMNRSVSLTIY

**Q.** What does the source list for `C=CCn1c(=O)c2cnc(Nc3ccc(N4CCN(CCCNc5cccc6c5C(=O)N(C5CCC(=O)NC5=O)C6=O)CC4)cc3)nc2n1-c1cccc(C(C)(C)O)n1` (stereo not drawn) [Compound 13, 4-((3-(4-(4-((2-allyl-1-(6-(2-hydroxypropan-2-yl)pyridin-2-yl)-3-oxo-2,3-dihydro-1H-pyrazolo[3,4-d]pyrimidin-6-yl)amino)phenyl)piperazin-1-yl)propyl)amino)-2-(2,6-dioxopiperidin-3-yl)isoindoline-1,3-dione]?
**A.** Concentration giving maximal Wee1 degradation (Wee1): 100 nM; Effect on mitotic cell number (MCF10A cells): very little effect; Changes in mitotic cell number (BT549 and HCC1806 cells): greater changes in mitotic cell number than AZD1775
